Results on 15 compounds are retold here after publication PMC10813153, “Development of a Novel Covalently Bonded Conjugate of Caprylic Acid Tripeptide (Isoleucine–Leucine–Aspartic Acid) for Wound-Compatible and Injectable Hydrogel to Accelerate Healing” (Biomolecules, 2024).

Structures are written as SMILES. Entries after “also recorded” stand apart in the source; their conditions may differ. Where a SMILES comes first, the peptide text is derived from it. The star is where a group is joined. Palmitoyl = CCCCCCCCCCCCCCCC(=O)*; Myristoyl = CCCCCCCCCCCCCC(=O)*; Lauroyl = CCCCCCCCCCCC(=O)*; Octanoyl = CCCCCCCC(=O)* Some results are limits rather than exact numbers.

Series [1] in a line: Hydrogel formation, confirmed by vial inversion method. It is filed as physicochemical. As to conditions: for Gelation Feature: conjugate 1.5% w/v in PBS saline, pH 6.5–7.8, dissolved at pH 9 then readjusted, sonication, vial inversion; for Gelation Time: time after the pH was adjusted to 7.4; for Hydrogel stability when shaken by hand: visual, compared with other conjugates; for Concentration at which hydrogel forms in PBS: PBS buffer, remained a solution below, vial inversion test. As to the method:
Lyophilized fatty acid–peptide conjugates were dissolved in phosphate-buffered saline (PBS) at a final concentration of 0.5% (5.0 mg in 1 mL of PBS), 1.5% (15.0 mg in 1 mL of PBS), and 3% (30.0 mg in 1 mL of PBS). The pH of the peptide solutions was increased to 9.0 by adding 0.1 M NaOH to dissolve the compounds and readjusted to pH 2–8 by the drop-wise addition of 0.1 N HCl, followed by sonication. […] The gel formation was confirmed by the vial inversion method, and photographs were taken.

The nature of series [2]: Gross assessment of toxicity during wound healing test. Set-up: species or system C57BL/6J mice. Particulars: mouse, in vivo. An excerpt:
The animal use protocol was authorized and approved by the Institutional Animal Care and Use Committee of Louisiana State University Health Sciences Center, New Orleans, and followed the ARRIVE guidelines. Briefly, full-thickness burn wounds (6 mm diameter) were generated in the dorsal skin on both sides along the midline of C57BL/6J mice (female, 18 months old, Jackson Laboratory, Bar Harbor, ME, USA) at 0 days post burn (dpb), similar to the procedures performed by us and others previously. Each treatment group included four mice. […] We monitored mouse health and behavior, including drinking, foraging, grooming, and eating, and we examined all wounds twice per day to ensure that the hydrogel and dressing stayed in place. Wound healing was assessed as described previously. The wounds were photographed, and their areas were calculated using NIH ImageJ software version 1.54d. […] The livers, kidneys, and spleens were also collected, weighed, and measured for size to obtain a gross assessment of toxicity. […] The epithelial gap—i.e., the distance between the neoepithelium emerging from the edges of the wound area—was measured using OLYMPUS OlyVIA software version 3.4.1 (Build 26606), as described previously but with some modifications.

Series [3] is described as follows: Hydrogel formation, confirmed by vial inversion method. It is filed as physicochemical. As to conditions: 1.5% w/v in PBS.

`CCCCCCCC(=O)N[C@H](C(=O)N[C@@H](CC(C)C)C(=O)N[C@@H](CC(=O)O)C(=O)O)[C@@H](C)CC` [Compound 5] (Octanoyl-Ile-Leu-Asp-OH): the “Gelation Feature” value in series [1] is on record as “unable to form a hydrogel at all; also recorded: Not gelate”.

In the case of `CCCCCCCC(=O)N[C@H](C(=O)N[C@@H](C)C(=O)N[C@@H](CC(=O)O)C(N)=O)[C@@H](C)CC` [Compound 9] (Octanoyl-Ile-Ala-Asp-NH2), in series [1] (1.5% w/v in PBS), the “Gelation Time” value came out at 2 min.

`CCCCCCCC(=O)N[C@H](C(=O)N[C@@H](CC(C)C)C(=O)N[C@@H](CC(=O)O)C(N)=O)C(C)C` [Compound 13] (Octanoyl-Val-Leu-Asp-NH2): in series [1] (1.5% w/v in PBS), the “Gelation Time” value is given as 6 min.

With `CCCCCCCC(=O)N[C@H](C(=O)N[C@H](C(=O)N[C@@H](CC(=O)O)C(N)=O)[C@@H](C)CC)[C@@H](C)CC` [Compound 14] (Octanoyl-Ile-Ile-Asp-NH2), in series [1] (1.5% w/v in PBS), the “Gelation Time” value turned out to be 5 min.

Regarding `CCCCCCCC(=O)N[C@@H](CC(C)C)C(=O)N[C@@H](CC(C)C)C(=O)N[C@@H](CC(=O)O)C(N)=O` [Compound 12] (Octanoyl-Leu-Leu-Asp-NH2), the “Gelation Time” value in series [1] (1.5% w/v in PBS) is 5 min.

`CCCCCCCCCCCC(=O)N[C@H](C(=O)N[C@@H](CC(C)C)C(=O)N[C@@H](CC(=O)O)C(=O)O)[C@@H](C)CC` [Compound 6] (Lauroyl-Ile-Leu-Asp-OH): the “Gelation Time” value in series [1] (1.5% w/v in PBS) is 7 min. Moreover, in series [1], the “Gelation Feature” value is on record as “Hydrogels were formed” and the “Hydrogel stability when shaken by hand” value is recorded as “weaker than those formed by Cn acid-ILD-NH2 with the same Cn acid”.

Turning to `CCCCCCCCCCCC(=O)N[C@H](C(=O)N[C@@H](CC(C)C)C(=O)N[C@@H](CC(=O)O)C(N)=O)[C@@H](C)CC` [Compound 3] (Lauroyl-Ile-Leu-Asp-NH2), the “Gelation Time” value in series [1] (1.5% w/v in PBS) is given as 6 min. Moreover, the “Concentration at which hydrogel forms in PBS” value in series [1] was ≥ 0.25 % (w/v).

Turning to `CCCCCCCCCCCCCCCC(=O)N[C@H](C(=O)N[C@@H](CC(C)C)C(=O)N[C@@H](CC(=O)O)C(N)=O)[C@@H](C)CC` [Compound 4] (Palmitoyl-Ile-Leu-Asp-NH2), the “Gelation Time” value in series [1] (1.5% w/v in PBS) came out at 10 min. Besides, the “Concentration at which hydrogel forms in PBS” value in series [1] is listed as ≥ 0.25 % (w/v).

In the case of `CCCCCCCC(=O)N[C@@H](CC(C)C)C(=O)N[C@H](C(=O)N[C@@H](CC(=O)O)C(N)=O)[C@@H](C)CC` [Compound 15] (Octanoyl-Leu-Ile-Asp-NH2), the “Gelation Time” value in series [1] (1.5% w/v in PBS) worked out at 5 min.

In the case of `CCCCCCCC(=O)N[C@@H](C)C(=O)N[C@@H](CC(C)C)C(=O)N[C@@H](CC(=O)O)C(N)=O` [Compound 11] (Octanoyl-Ala-Leu-Asp-NH2), the “Gelation Time” value in series [1] (1.5% w/v in PBS) is 3 min.

With `CCCCCCCCCCCCCC(=O)N[C@H](C(=O)N[C@@H](CC(C)C)C(=O)N[C@@H](CC(=O)O)C(=O)O)[C@@H](C)CC` [Compound 7] (Myristoyl-Ile-Leu-Asp-OH), the “Gelation Time” value in series [1] (1.5% w/v in PBS) is 10 min. Also, in series [1], the “Gelation Feature” value is “Hydrogels were formed” and the “Hydrogel stability when shaken by hand” value is “weaker than those formed by Cn acid-ILD-NH2 with the same Cn acid”.

On to `CCCCCCCC(=O)N[C@H](C(=O)N[C@H](C(=O)N[C@@H](CC(=O)O)C(N)=O)C(C)C)[C@@H](C)CC` [Compound 10] (Octanoyl-Ile-Val-Asp-NH2), for which the “Gelation Time” value in series [1] (1.5% w/v in PBS) turned out to be 3 min.

Turning to `CCCCCCCC(=O)N[C@H](C(=O)N[C@@H](CC(C)C)C(=O)N[C@@H](CC(=O)O)C(N)=O)[C@@H](C)CC` [Compound 2, caprylic acid–isoleucine–leucine–aspartic acid amide conjugate] (Octanoyl-Ile-Leu-Asp-NH2), in series [1] (1.5% w/v in PBS, pH 2–8), the “Gel stability at pH 2–8” value is “gelated and stable; also recorded: formed a hydrogel and stayed gelated”. Also, the “Hydrogel stability when shaken by hand” value in series [1] is recorded as “more stable than either (3) or (4)”. Further, the “Systematic or local toxicity during the wound healing test” value in series [2] was “did not show systematic or local toxicity”. Further, in series [3], the “Gel stability at pH 10” value is “no gelation”.

Turning to `CC[C@H](C)[C@H](N)C(=O)N[C@@H](CC(C)C)C(=O)N[C@@H](CC(=O)O)C(N)=O` [Compound 1] (H-Ile-Leu-Asp-NH2), the “Gelation Feature” value in series [1] is reported as “did not gelate”.

As to `CCCCCCCCCCCCCCCC(=O)N[C@H](C(=O)N[C@@H](CC(C)C)C(=O)N[C@@H](CC(=O)O)C(=O)O)[C@@H](C)CC` [Compound 8] (Palmitoyl-Ile-Leu-Asp-OH), the “Gelation Time” value in series [1] (1.5% w/v in PBS) amounted to 15 min. Further, in series [1], the “Gelation Feature” value is reported as “Hydrogels were formed” and the “Hydrogel stability when shaken by hand” value is “weaker than those formed by Cn acid-ILD-NH2 with the same Cn acid”.
